Several values for one entry are separate records, joined by “and”; a condition that tells them apart may be missing. Identical values can stand only once. Toxic doses and inconclusive results are not listed. Rule as the data show it: active = T/C of 150% or more; inactive = T/C below 125%.
System: L1210 leukemia ip in BDF1 mice, survival T/C
Assay: NCI In Vivo Anticancer Drug Screen. Data for tumor model L1210 Leukemia (intraperitoneal) in B6D2F1 (BDF1) mice
Details: endpoint: mean survival time, higher = longer survival
Outline: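 Antitumor effect is assessed in tumor-bearing animals. Survival in the compound arm is compared with a vehicle-dosed control arm and expressed as their quotient.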

[1] = dose: 50.0 mg/kg/injection, schedule: Q01DX009 (ip), vehicle: Klucel (hydroxypropylcellulose) (HPC)
[2] = dose: 100.0 mg/kg/injection, schedule: Q01DX009 (ip), vehicle: Klucel (hydroxypropylcellulose) (HPC)
[3] = dose: 200.0 mg/kg/injection, schedule: Q01DX009 (ip), vehicle: Klucel (hydroxypropylcellulose) (HPC)
[4] = dose: 100.0 mg/kg/injection, schedule: Q04DX003 (ip), vehicle: Klucel (hydroxypropylcellulose) (HPC)
[5] = dose: 200.0 mg/kg/injection, schedule: Q04DX003 (ip), vehicle: Klucel (hydroxypropylcellulose) (HPC)
[6] = dose: 400.0 mg/kg/injection, schedule: Q04DX003 (ip), vehicle: Klucel (hydroxypropylcellulose) (HPC)
[7] = dose: 100.0 mg/kg/injection, schedule: Q01DX001 (ip), vehicle: saline
[8] = dose: 200.0 mg/kg/injection, schedule: Q01DX001 (ip), vehicle: saline

Measured: T/C

CC(=O)C1=CN(C(C)(C)C)COC1C (stereo not drawn)
inactive: [1] 104 % of control | [2] 95 % of control | [3] 110 % of control

CCCCn1cc(S(=O)(=O)Nc2ccccc2)c(=O)[nH]c1=O
inactive: dose: 37.5 mg/kg/injection, schedule: Q01DX001 (ip), vehicle: saline with Tween-80 104 % of control | dose: 75.0 mg/kg/injection, schedule: Q01DX001 (ip), vehicle: saline with Tween-80 98 % of control | dose: 150.0 mg/kg/injection, schedule: Q01DX001 (ip), vehicle: saline with Tween-80 98 % of control

COc1ccc(C2CCCCC2O)cc1 (stereo not drawn)
inactive: [2] 94 % of control | [4] 97 % of control | [3] 99 % of control | [5] 91 % of control | dose: 400.0 mg/kg/injection, schedule: Q01DX009 (ip), vehicle: Klucel (hydroxypropylcellulose) (HPC) 99 % of control | [6] 93 % of control

NC(=O)c1cc(Cl)ccc1N
inactive: dose: 100.0 mg/kg/injection, schedule: Q01DX001 (ip), vehicle: other 97 % of control | dose: 200.0 mg/kg/injection, schedule: Q01DX001 (ip), vehicle: other 97 % of control | dose: 400.0 mg/kg/injection, schedule: Q01DX001 (ip), vehicle: other 105 % of control

COc1ccc(CC(C(=O)O)c2ccccc2C(=O)O)cc1OC (stereo not drawn)
inactive: [7] 101 % of control | [8] 97 % of control | dose: 400.0 mg/kg/injection, schedule: Q01DX001 (ip), vehicle: saline 97 % of control

C(=C/c1ccccc1)/C=N/Nc1ccccc1
inactive: [4] 98 % of control | [5] 95 % of control | [6] 92 % of control

c1coc(C2SCSCS2)c1
inactive: [4] 105 % of control | [5] 101 % of control | [6] 95 % of control

NC(=S)N/N=C/c1ccc(Cl)cn1
inactive: dose: 7.33 mg/kg/injection, schedule: Q04DX003 (ip), vehicle: saline with Tween-80 97 % of control | dose: 11.0 mg/kg/injection, schedule: Q01DX001 (ip), vehicle: saline with Tween-80 95 % of control | dose: 11.0 mg/kg/injection, schedule: Q04DX003 (ip), vehicle: saline with Tween-80 104 % of control | dose: 16.5 mg/kg/injection, schedule: Q01DX001 (ip), vehicle: saline with Tween-80 105 % of control | dose: 16.5 mg/kg/injection, schedule: Q04DX003 (ip), vehicle: saline with Tween-80 116 % of control | dose: 25.0 mg/kg/injection, schedule: Q01DX001 (ip), vehicle: saline with Tween-80 111 % of control | dose: 25.0 mg/kg/injection, schedule: Q04DX003 (ip), vehicle: saline with Tween-80 121 % of control

OC1C2C=CC1C1C=CC1=CC2 (stereo not drawn)
inactive: dose: 50.0 mg/kg/injection, schedule: Q01DX001 (ip), vehicle: saline with Tween-80 103 % of control | dose: 100.0 mg/kg/injection, schedule: Q01DX001 (ip), vehicle: saline with Tween-80 108 % of control | dose: 200.0 mg/kg/injection, schedule: Q01DX001 (ip), vehicle: saline with Tween-80 98 % of control

CCN(CC)c1ccc(C(=O)c2ccc(N(CC)CC)cc2)cc1
inactive: dose: 15.0 mg/kg/injection, schedule: Q01DX Z (ip), vehicle: carboxymethylcellulose (CMC) 88 % of control | dose: 30.0 mg/kg/injection, schedule: Q01DX Z (ip), vehicle: carboxymethylcellulose (CMC) 92 % of control | dose: 60.0 mg/kg/injection, schedule: Q01DX Z (ip), vehicle: carboxymethylcellulose (CMC) 92 % of control and 95 % of control | dose: 120.0 mg/kg/injection, schedule: Q01DX Z (ip), vehicle: carboxymethylcellulose (CMC) 94 % of control and 100 % of control | dose: 240.0 mg/kg/injection, schedule: Q01DX Z (ip), vehicle: carboxymethylcellulose (CMC) 100 % of control | dose: 480.0 mg/kg/injection, schedule: Q01DX Z (ip), vehicle: carboxymethylcellulose (CMC) 118 % of control

COCCNCCOC
inactive: dose: 50.0 mg/kg/injection, schedule: Q04DX003 (ip), vehicle: saline 106 % of control | dose: 100.0 mg/kg/injection, schedule: Q01DX009 (ip), vehicle: saline 103 % of control | dose: 100.0 mg/kg/injection, schedule: Q04DX003 (ip), vehicle: saline 100 % of control | dose: 200.0 mg/kg/injection, schedule: Q01DX009 (ip), vehicle: saline 98 % of control | dose: 200.0 mg/kg/injection, schedule: Q04DX003 (ip), vehicle: saline 122 % of control | dose: 400.0 mg/kg/injection, schedule: Q01DX009 (ip), vehicle: saline 104 % of control | dose: 400.0 mg/kg/injection, schedule: Q04DX003 (ip), vehicle: saline 103 % of control

CCCCSc1ccc2c(cc1=O)C(NC(C)=O)CCc1cc(OC)c(OC)c(OC)c1-2 (stereo not drawn)
inactive: dose: 25.0 mg/kg/injection, schedule: Q04DX002 (ip), vehicle: saline 98 % of control | dose: 50.0 mg/kg/injection, schedule: Q04DX002 (ip), vehicle: saline 98 % of control | dose: 100.0 mg/kg/injection, schedule: Q04DX002 (ip), vehicle: saline 120 % of control

c1ccc([Si](c2ccccc2)(c2ccccc2)c2cccs2)cc1
inactive: dose: 100.0 mg/kg/injection, schedule: Q04DX003 (ip), vehicle: saline with Tween-80 93 % of control | dose: 200.0 mg/kg/injection, schedule: Q04DX003 (ip), vehicle: saline with Tween-80 90 % of control | dose: 400.0 mg/kg/injection, schedule: Q04DX003 (ip), vehicle: saline with Tween-80 88 % of control

N#CCC(=O)[O][Sn]([c]1ccccc1)([c]1ccccc1)[c]1ccccc1
inactive: dose: 1.56 mg/kg/injection, schedule: Q01DX009 (ip), vehicle: saline with Tween-80 99 % of control | dose: 3.12 mg/kg/injection, schedule: Q01DX009 (ip), vehicle: saline with Tween-80 92 % of control | dose: 6.25 mg/kg/injection, schedule: Q01DX009 (ip), vehicle: saline with Tween-80 89 % of control

CSc1nc(SC)c2c(ncn2C2OC(CO)C(O)C2O)n1 (stereo not drawn)
inactive: dose: 50.0 mg/kg/injection, schedule: Q01DX001 (ip), vehicle: saline 111 % of control | [7] 102 % of control | [8] 104 % of control

CCC(C)Nc1ccccc1 (stereo not drawn)
inactive: [1] 102 % of control and 104 % of control | dose: 50.0 mg/kg/injection, schedule: Q04DX003 (ip), vehicle: Klucel (hydroxypropylcellulose) (HPC) 101 % of control | [2] 102 % of control and 103 % of control | [4] 101 % of control | [3] 94 % of control and 87 % of control | [5] 97 % of control

CCCNC(=O)Nc1ccc(Cl)cc1
inactive: dose: 100.0 mg/kg/injection, schedule: Q01DX001 (ip), vehicle: carboxymethylcellulose (CMC) 103 % of control | dose: 200.0 mg/kg/injection, schedule: Q01DX001 (ip), vehicle: carboxymethylcellulose (CMC) 98 % of control | dose: 400.0 mg/kg/injection, schedule: Q01DX001 (ip), vehicle: carboxymethylcellulose (CMC) 95 % of control
